# Calls of active or inactive are those of the source. The rule behind the calls is not given here.
# Tests used:
# Cholinesterase = Cholinesterase (Equus caballus, UniProt P81908)
# Description: Inhibition of equine serum BuChE using butyrylthiocholine iodide as substrate after 5 mins by Ellman's method
# Acetylcholinesterase = Acetylcholinesterase (Electrophorus electricus, UniProt O42275)
# Description: Inhibition of eel AChE using acetylthiocholine iodide as substrate after 5 mins by Ellman's method
# [1] = tested on: Radical scavenging activity; test: Antioxidant activity assessed as DPPH free radical scavenging activity at 2 mM relative to ferulic acid; assay type: functional
# [2] = Induction of NO release in phosphate buffer assessed as inorganic nitrite level at pH 7.4 at 10^-4 M measured at 30 mins by Griess assay in presence of L-cysteine; assay type: physicochemical; settings: pH 7.4, 0.5 h, 100 µM
# [3] = target: Cholinesterase (Equus caballus) (UniProt P81908); test: Competitive inhibition of equine serum BuChE using butyrylthiocholine iodide as substrate at 1 to 10 nM after 4 mins by Ellman's method
# Aorta = test: tissue or blood; settings: Rattus norvegicus
# Description: Vasorelaxant activity in rat aortic rings assessed as reduction of norepinephrine-induced contraction
# [4] = Induction of NO release in phosphate buffer assessed as inorganic nitrite level at pH 7.4 at 10^-4 M measured at 10 mins by Griess assay in presence of L-cysteine; assay type: physicochemical; settings: pH 7.4, 10 min, 100 µM
# [5] = target: Acetylcholinesterase (Electrophorus electricus) (UniProt O42275); test: Mixed inhibition of eel AChE using acetylthiocholine iodide as substrate at 1 to 10 nM after 4 mins by Lineweaver-Burk plot analysis
# Acetylcholinesterase (Electrophorus electricus), sequence (O42275 24-633 limits assumed): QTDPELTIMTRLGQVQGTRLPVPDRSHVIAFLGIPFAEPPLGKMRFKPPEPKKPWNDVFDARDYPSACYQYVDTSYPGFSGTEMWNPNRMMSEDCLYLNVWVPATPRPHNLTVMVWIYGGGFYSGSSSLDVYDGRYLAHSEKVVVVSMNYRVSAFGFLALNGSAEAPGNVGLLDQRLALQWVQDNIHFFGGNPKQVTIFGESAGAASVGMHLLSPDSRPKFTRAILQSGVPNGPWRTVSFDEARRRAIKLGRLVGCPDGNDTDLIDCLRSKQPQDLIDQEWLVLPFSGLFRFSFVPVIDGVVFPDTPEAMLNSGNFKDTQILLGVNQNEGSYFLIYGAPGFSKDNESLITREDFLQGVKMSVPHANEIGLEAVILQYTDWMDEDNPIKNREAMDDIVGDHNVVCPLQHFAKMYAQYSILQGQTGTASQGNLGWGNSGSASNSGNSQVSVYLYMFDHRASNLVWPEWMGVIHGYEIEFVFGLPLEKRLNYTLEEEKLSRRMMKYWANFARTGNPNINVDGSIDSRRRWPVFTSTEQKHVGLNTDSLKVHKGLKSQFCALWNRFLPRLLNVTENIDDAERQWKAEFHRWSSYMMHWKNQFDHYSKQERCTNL
# Acetylcholinesterase, sequence (O42275 whole entry): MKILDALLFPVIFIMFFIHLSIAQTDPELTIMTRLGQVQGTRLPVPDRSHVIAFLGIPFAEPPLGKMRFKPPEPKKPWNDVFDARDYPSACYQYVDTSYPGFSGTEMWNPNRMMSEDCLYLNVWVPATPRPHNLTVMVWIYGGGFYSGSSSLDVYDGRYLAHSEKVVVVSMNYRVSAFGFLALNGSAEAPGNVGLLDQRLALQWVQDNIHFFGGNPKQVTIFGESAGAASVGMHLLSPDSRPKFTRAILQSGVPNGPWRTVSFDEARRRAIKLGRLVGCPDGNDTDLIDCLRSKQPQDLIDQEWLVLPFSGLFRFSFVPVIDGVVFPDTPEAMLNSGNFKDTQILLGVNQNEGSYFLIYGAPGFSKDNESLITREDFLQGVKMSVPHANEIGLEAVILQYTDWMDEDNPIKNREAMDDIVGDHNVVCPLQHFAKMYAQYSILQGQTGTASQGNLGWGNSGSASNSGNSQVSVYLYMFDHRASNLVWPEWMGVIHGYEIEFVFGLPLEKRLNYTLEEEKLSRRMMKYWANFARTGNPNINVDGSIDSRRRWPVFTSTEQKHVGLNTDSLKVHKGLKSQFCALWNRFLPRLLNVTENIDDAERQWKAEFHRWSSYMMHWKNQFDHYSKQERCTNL
# Cholinesterase, sequence (P81908 whole entry): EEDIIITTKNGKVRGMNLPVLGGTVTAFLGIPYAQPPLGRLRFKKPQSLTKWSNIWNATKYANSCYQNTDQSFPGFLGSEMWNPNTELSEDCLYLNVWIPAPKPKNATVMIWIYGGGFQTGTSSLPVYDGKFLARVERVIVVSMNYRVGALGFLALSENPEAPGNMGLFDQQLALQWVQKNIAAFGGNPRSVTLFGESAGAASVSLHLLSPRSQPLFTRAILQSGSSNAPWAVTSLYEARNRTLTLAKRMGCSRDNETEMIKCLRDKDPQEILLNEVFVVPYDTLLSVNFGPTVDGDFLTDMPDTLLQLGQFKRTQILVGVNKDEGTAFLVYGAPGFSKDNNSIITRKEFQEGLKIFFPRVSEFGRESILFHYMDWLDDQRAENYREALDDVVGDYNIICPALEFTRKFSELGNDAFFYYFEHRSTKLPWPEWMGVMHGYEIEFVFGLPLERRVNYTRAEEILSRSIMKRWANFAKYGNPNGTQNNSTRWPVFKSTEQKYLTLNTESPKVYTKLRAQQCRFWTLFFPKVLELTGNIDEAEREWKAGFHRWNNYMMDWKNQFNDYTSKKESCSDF
# Cholinesterase (Equus caballus), sequence (P81908 whole entry): as above
SMILES,IC50 (Cholinesterase) [µM],IC50 (Acetylcholinesterase) [µM],Activity [1] [%],Activity [2] [µg/mL],inhibition [3],EC50 (Aorta) [µM],Activity [4] [µg/mL],inhibition [5]
COc1cc(/C=C/C(=O)NCCCCCCNc2c3c(nc4ccccc24)CCCC3)ccc1OCCCCO[N+](=O)[O-],0.0014,0.0037,< 1,,,,,
COc1cc(/C=C/C(=O)NCCCNc2c3c(nc4ccccc24)CCCC3)ccc1OCCCO[N+](=O)[O-],0.0177,0.0109,< 1,0.305,Active,34.3,0.241,Active
COc1cc(/C=C/C(=O)O)ccc1OCCO[N+](=O)[O-],> 10,> 10,,,,,,
COc1cc(/C=C/C(=O)NCCCCCCNc2c3c(nc4ccccc24)CCCC3)ccc1O,0.0263,0.0127,64.7,,,,,
COc1cc(/C=C/C(=O)NCCCCNc2c3c(nc4ccccc24)CCCC3)ccc1O,0.0098,0.0111,,,,,,
COc1cc(/C=C/C(=O)NCCCCCCCCNc2c3c(nc4ccccc24)CCCC3)ccc1OCCCO[N+](=O)[O-],0.001,0.0101,< 1,,,,,
COc1cc(/C=C/C(=O)NCCCNc2c3c(nc4ccccc24)CCCC3)ccc1OCCCCO[N+](=O)[O-],0.0062,0.0036,< 1,,,,,
COc1cc(/C=C/C(=O)NCCCCCCNc2c3c(nc4ccccc24)CCCC3)ccc1OCCCO[N+](=O)[O-],0.0056,0.0044,< 1,,,,,
COc1cc(/C=C/C(=O)NCCCCNc2c3c(nc4ccccc24)CCCC3)ccc1OCCCCCCO[N+](=O)[O-],0.0117,0.0279,< 1,,,,,
COc1cc(/C=C/C(=O)NCCNc2c3c(nc4ccccc24)CCCC3)ccc1OCCCO[N+](=O)[O-],0.0084,0.0199,< 1,,,,,
NCCNc1c2c(nc3ccccc13)CCCC2,0.0309,0.0714,,,,,,
COc1cc(/C=C/C(=O)NCCCCCCCCNc2c3c(nc4ccccc24)CCCC3)ccc1OCCCCO[N+](=O)[O-],0.0018,0.0094,< 1,,,,,
COc1cc(/C=C/C(=O)NCCCCCCCCNc2c3c(nc4ccccc24)CCCC3)ccc1OCCCCCCO[N+](=O)[O-],0.0019,0.0108,< 1,,,,,
COc1cc(/C=C/C(=O)NCCCCNc2c3c(nc4ccccc24)CCCC3)ccc1OCCO[N+](=O)[O-],0.0202,0.0221,< 1,,,,,
COc1cc(/C=C/C(=O)NCCNc2c3c(nc4ccccc24)CCCC3)ccc1OCCCCO[N+](=O)[O-],0.0076,0.0271,< 1,,,,,
COc1cc(/C=C/C(=O)NCCNc2c3c(nc4ccccc24)CCCC3)ccc1OCCO[N+](=O)[O-],0.0105,0.0172,< 1,,,48.8,,
COc1cc(/C=C/C(=O)NCCCNc2c3c(nc4ccccc24)CCCC3)ccc1O,0.0311,0.0567,,,,2050,,
COc1cc(/C=C/C(=O)NCCNc2c3c(nc4ccccc24)CCCC3)ccc1O,0.0375,0.062,,,,,,

SMILES,IC50 (Cholinesterase) [µM],IC50 (Acetylcholinesterase) [µM],Activity [1] [%],Activity [2] [µg/mL],inhibition [3],EC50 (Aorta) [µM],Activity [4] [µg/mL],inhibition [5]
COc1cc(/C=C/C(=O)O)ccc1OCCCO[N+](=O)[O-],> 10,> 10,,,,,,
NCCCCNc1c2c(nc3ccccc13)CCCC2,0.0229,0.0393,,,,,,
COc1cc(/C=C/C(=O)NCCCNc2c3c(nc4ccccc24)CCCC3)ccc1OCCO[N+](=O)[O-],0.0249,0.0144,< 1,,,,,
COc1cc(/C=C/C(=O)NCCCCCCCCNc2c3c(nc4ccccc24)CCCC3)ccc1OCCO[N+](=O)[O-],0.0016,0.0055,< 1,0.275,,234,0.145,
NCCCCCCNc1c2c(nc3ccccc13)CCCC2,0.0066,0.0237,,,,,,
COc1cc(/C=C/C(=O)NCCCCCCCCNc2c3c(nc4ccccc24)CCCC3)ccc1O,0.0274,0.0169,,,,,,
COc1cc(/C=C/C(=O)NCCCCCCNc2c3c(nc4ccccc24)CCCC3)ccc1OCCO[N+](=O)[O-],0.0052,0.0083,< 1,,,,,
COc1cc(/C=C/C(=O)NCCCCNc2c3c(nc4ccccc24)CCCC3)ccc1OCCCO[N+](=O)[O-],0.0236,0.0443,< 1,,,,,
COc1cc(/C=C/C(=O)NCCNc2c3c(nc4ccccc24)CCCC3)ccc1OCCCCCCO[N+](=O)[O-],0.0218,0.0406,< 1,,,,,
NCCCCCCCCNc1c2c(nc3ccccc13)CCCC2,0.0028,0.0029,,,,,,
O=[N+]([O-])O[C@H]1CO[C@H]2[C@@H]1OC[C@H]2O[N+](=O)[O-] [ISOSORBIDE DINITRATE],,,,,,25.2,,
COc1cc(/C=C/C(=O)NCCCNc2c3c(nc4ccccc24)CCCC3)ccc1OCCCCCCO[N+](=O)[O-],0.0193,0.0218,< 1,,,,,
NCCCNc1c2c(nc3ccccc13)CCCC2,0.0197,0.0795,,,,,,
COc1cc(/C=C/C(=O)NCCCCNc2c3c(nc4ccccc24)CCCC3)ccc1OCCCCO[N+](=O)[O-],0.0047,0.0195,< 1,,,,,
COc1cc(/C=C/C(=O)O)ccc1OCCCCO[N+](=O)[O-],> 10,> 10,,,,,,
COc1cc(/C=C/C(=O)O)ccc1OCCCCCCO[N+](=O)[O-],> 10,> 10,,,,,,
CCCOc1ccc(/C=C/C(=O)NCCCNc2c3c(nc4ccccc24)CCCC3)cc1OC,0.0403,0.0698,,,,838,,
COc1cc(/C=C/C(=O)NCCCCCCNc2c3c(nc4ccccc24)CCCC3)ccc1OCCCCCCO[N+](=O)[O-],0.002,0.0048,< 1,,,,,
